Where “and” joins values, the source holds several entries; their conditions need not be identical. Equal entries are not always repeated.
Columns and labels:
[1] = test system: Gif106M1 transformed with pBT436; assay: Growth inhibition by lysine in M9 media; format: cell-based, E. coli
Method: Addition of lysine (or diaminopimelate which is readily converted to lysine in vivo) at a concentration of approximately 0.2 mM to the growth medium inhibits the growth of Gif106M1 transformed with pBT436. M9 media [see Sambrook et al. (1989) Molecular Cloning, A Laboratory Manual, Cold Spring Harbor Laboratory Press] supplemented with the arginine and isoleucine, required for Gif106M1 growth, and ampicillin, to maintain selection for the pBT436 plasmid, was used. This inhibition is reversed by addition of threonine plus methionine to the growth media. […] This property of pBT436-transformed Gif106M1 was used to select for mutations in lysC that encoded lysine-insensitive AKIII.

tobacco DHDPS = assay: DHDPS enzyme assay of plant extracts, sensitivity to lysine; format: biochemical
Method: The leaf extracts were assayed for DHDPS activity as described in Example 4.
To test this hypothesis, total protein extracts were prepared from mature seeds and assayed for DHDPS activity. Approximately 30-40 mg of seeds were put into a 1.5 mL disposable plastic microfuge tube and ground in 0.25 mL of 50 mM Tris-HCl, 50 mM NaCl, 1 mM EDTA (TNE). The grinding was done using a motorized grinder with disposable plastic shafts designed to fit into the microfuge tube. The resultant suspensions were centrifuged for 5 min at room temperature in a microfuge to remove particulates. Approximately 0.1 mL of aqueous supernatant was removed between the pelleted material and the upper oil phase. The seed extracts were assayed for DHDPS activity as described in Example 4.
To assay for expression of the chimeric genes in leaves of the transformed plants, protein was extracted as described in Example 7 for AKIII, and as described in Example 9 for DHDPS. The leaf extracts were assayed for DHDPS activity as described in Examples 4 and 9. […] Extracts were characterized immunologically for expression of AKIII and DHDPS proteins via Western blots as described in Examples 7 and 10.

AKIII-M2 = molecular target: T1, AKIII-M2 (Escherichia coli, UniProt P08660, G401A/M318I); assay: AK enzyme assay, sensitivity to L-lysine; format: biochemical, E. coli; conditions: 15 mM L-lysine
T1 construct: made in house; host or cells: E. coli BL21(DE3), crude extract
T1 sequence (P08660 other isoform, or with tags, fused parts or gaps M318I/G401A): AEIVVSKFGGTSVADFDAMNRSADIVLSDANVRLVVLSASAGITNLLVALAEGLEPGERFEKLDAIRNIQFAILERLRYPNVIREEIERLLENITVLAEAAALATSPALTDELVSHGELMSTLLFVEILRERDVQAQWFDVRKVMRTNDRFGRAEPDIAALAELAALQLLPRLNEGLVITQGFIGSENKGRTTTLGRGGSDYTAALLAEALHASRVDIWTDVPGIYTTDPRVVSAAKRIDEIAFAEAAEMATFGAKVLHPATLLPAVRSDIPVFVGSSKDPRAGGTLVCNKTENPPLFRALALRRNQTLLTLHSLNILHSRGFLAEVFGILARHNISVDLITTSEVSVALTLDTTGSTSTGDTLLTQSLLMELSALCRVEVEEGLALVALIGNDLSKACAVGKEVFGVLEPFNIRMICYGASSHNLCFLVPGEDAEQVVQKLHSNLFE
Method: (§1) AK activity was assayed as shown below:
(§2) Assay mix (for 12 assay tubes): • 4.5 mL H2O • 1.0 mL 8M KOH • 1.0 mL 8M NH2OH-HCl • 1.0 mL IM Tris-HCl pH 8.0 • 0.5 mL 0.2M ATP (121 mg/mL in 0.2M NaOH) • 50 μL 1M MgSO4
(§3) Each 1.5 mL eppendorf assay tube contained: • 0.64 mL assay mix • 0.04 mL 0.2 M L-aspartic acid or 0.04 mL H2O • 0.0005-0.12 mL extract • H2O to total volume 0.8 mL
(§4) Assay tubes were incubated at 30° C. for desired time (10-60 min). Then 0.4 mL FeCl3 reagent (10% w/v FeCl3, 3.3% trichloroacetic acid, 0.7 M HCl) was added and the material centrifuged for 2 min in an eppendorf centrifuge. The supernatant was decanted. The OD was read at 540 nm and compared to the aspartyl-hydroxamate standard.
(§5) Approximately 80% of the AKIII activity was in the supernatant fraction. The specific activity of wild type and mutant crude extracts was 5-7 μM product per min per milligram total protein. Wild type AKIII was sensitive to the presence of L-lysine in the assay.

AKIII-M4 = molecular target: T2, AKIII-M4 (Escherichia coli, UniProt P08660, G401A/T352I); assay: AK enzyme assay, sensitivity to L-lysine; format: biochemical, E. coli; conditions: 15 mM L-lysine
T2 construct: made in house; host or cells: E. coli BL21(DE3), crude extract
T2 sequence (P08660 other isoform, or with tags, fused parts or gaps T352I/G401A): as the sequence (P08660 other isoform, or with tags, fused parts or gaps M318I/G401A) above, with I317M, T351I counted along it
Method: as §1, §2, §3, §4, §5

Wild type AKIII = molecular target: T3, Wild type AKIII (Escherichia coli, UniProt P08660, G401A); assay: AK enzyme assay, sensitivity to L-lysine; format: biochemical, E. coli
T3 construct: the coding region of the wild type E. coli lysC gene, which encodes AKIII; made in house; host or cells: E. coli BL21(DE3), supernatant of crude extract
T3 sequence (P08660 other isoform, or with tags, fused parts or gaps G401A): as the sequence (P08660 other isoform, or with tags, fused parts or gaps M318I/G401A) above, with I317M counted along it
Method: as §1, §2, §3, §4, §5

AKIII-M3 = molecular target: T4, AKIII-M3 (Escherichia coli, UniProt P08660, G401A/T352I); assay: AK enzyme assay, sensitivity to L-lysine; format: biochemical, E. coli; conditions: 15 mM L-lysine
T4 construct: made in house; host or cells: E. coli BL21(DE3), crude extract
T4 sequence (P08660 other isoform, or with tags, fused parts or gaps T352I/G401A): as the sequence (P08660 other isoform, or with tags, fused parts or gaps M318I/G401A) above, with I317M, T351I counted along it
Method: as §1, §2, §3, §4, §5

DE126 = assay: Growth inhibition by L-lysine in synthetic medium; format: cell-based, E. coli
Method: (4) This step involves production of a male derivative of strain DE125. Strain DE125 was mated with the male strain AB1528 [F′16/delta(gpt-proA)62, lacY1 or lacZ4, glnV44, galK2 rac^−(?), hisG4, rfbd1, mgl-51, kdgK51(?), ilvC7, argE3, thi-1] (E. coli Genetic Stock Center #1528) by the method of conjugation. F′16 carries the ilvGMEDAYC gene cluster. The two strains were cross streaked on rich medium permissive for the growth of each strain. After incubation, the plate was replica plated to a synthetic medium containing tetracycline, arginine, vitamin B1 and glucose. DE125 cannot grow on this medium because it cannot synthesize isoleucine. Growth of AB1528 is prevented by the inclusion of the antibiotic tetracycline and the omission of proline and histidine from the synthetic medium. A patch of cells grew on this selective medium. These recombinant cells underwent single colony isolation on the same medium. The phenotype of one clone was determined to be Ilv^+, Arg^−, TetR, Lysine-sensitive, male specific phage (MS2)-sensitive, consistent with the simple transfer of F′16 from AB1528 to DE125. This clone was designated DE126 and has the genotype F′16/malE52::Tn10, arg^−, ilvA296, thrA1101, metL100, lysC^+, λ^−, rpsL9, malT1, xyl-7, mtl-2, thi-1?, supE44?. It is inhibited by 20 μg/mL of L-lysine in a synthetic medium.

Corynebacterium DHDPS = molecular target: T5, Corynebacterium DHDPS (Corynebacterium glutamicum, UniProt P19808); assay: DHDPS enzyme assay, sensitivity to L-lysine; format: biochemical; conditions: 70 mM L-lysine
T5 construct: made in house; host or cells: E. coli BL21(DE3), supernatant of uninduced extract
T5 sequence (P19808 other isoform, or with tags, fused parts or gaps): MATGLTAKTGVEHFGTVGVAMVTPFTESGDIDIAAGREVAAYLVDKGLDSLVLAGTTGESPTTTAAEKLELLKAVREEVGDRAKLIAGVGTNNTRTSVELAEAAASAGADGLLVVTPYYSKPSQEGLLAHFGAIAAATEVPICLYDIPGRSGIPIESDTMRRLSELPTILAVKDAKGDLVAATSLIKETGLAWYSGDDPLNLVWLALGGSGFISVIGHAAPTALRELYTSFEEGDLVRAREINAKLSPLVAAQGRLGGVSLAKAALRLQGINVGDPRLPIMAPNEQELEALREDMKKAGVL
Method: (§6) DHDPS enzyme activity was assayed as follows: Assay mix (for 10×1.0 mL assay tubes or 40×0.25 mL for microtiter dish); made fresh, just before use:
(§7) Color allowed to develop for 30-60 min. Precipitate spun down in eppendorf centrifuge. OD540 vs 0 min read as blank. For MicroAssay, aliquot 0.2 mL into microtiter well and read at OD530.
E. coli DHDPS was sensitive to the presence of L-lysine in the assay. Fifty percent inhibition was found at a concentration of about 0.5 mM. For Corynebacterium DHDPS, the activity was measured in the supernatant fraction of uninduced extracts, rather than induced extracts. Enzyme activity was about 4 OD530 units per min per milligram protein in a 0.25 mL assay.

E. coli DHDPS = molecular target: T6, E. coli DHDPS (Escherichia coli, UniProt P0A6L2, F2V); assay: biochemical; format: biochemical
T6 construct: the chloroplast targeting signal fused to the entire ecodapA coding region; expressed in transfected cells; host or cells: transgenic tobacco plants, leaf extracts (35S promoter) or mature seed extracts (phaseolin promoter)
T6 sequence (P0A6L2 whole entry F2V, the tested form may be a part): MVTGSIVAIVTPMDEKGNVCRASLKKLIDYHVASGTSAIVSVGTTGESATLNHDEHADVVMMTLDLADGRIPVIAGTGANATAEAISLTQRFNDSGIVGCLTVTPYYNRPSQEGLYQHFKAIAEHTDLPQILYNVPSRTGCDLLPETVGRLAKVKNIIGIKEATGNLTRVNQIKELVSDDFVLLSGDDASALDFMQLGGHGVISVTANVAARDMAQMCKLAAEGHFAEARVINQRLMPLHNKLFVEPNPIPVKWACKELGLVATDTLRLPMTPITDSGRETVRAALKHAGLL
Method: as §6, §7
For Corynebacterium DHDPS, the activity was measured in the supernatant fraction of uninduced extracts, rather than induced extracts.

## NCCCC[C@H](N)C(=O)O [L-lysine]
[1]
  concentration in growth medium that inhibits growth: approximately 0.2 mM
Tobacco DHDPS; 0.1 mM lysine, leaf extracts
  inhibition by lysine: completely inhibited
Tobacco DHDPS; 0.4 mM lysine, seed extracts
  inhibition by lysine: completely inhibited
AKIII-M2
  inhibition by L-lysine: not inhibited at all
AKIII-M4
  inhibition by L-lysine: not inhibited at all
Wild type AKIII; 1 mM lysine
  inhibition of wild type AKIII: > 90%
Wild type AKIII; L-lysine concentration for fifty percent inhibition of AKIII, crude extract
  IC50: ~400 µM and 300 to 400 µM
AKIII-M3
  inhibition by L-lysine: not inhibited at all
DE126
  concentration that inhibits growth: 20 µg/mL
Corynebacterium DHDPS
  inhibition by L-lysine: not inhibited at all
E. coli DHDPS
  IC50: ~500 µM
E. coli DHDPS; 0.1 mM lysine, leaf extracts
  activity retained: 80-90%
E. coli DHDPS; 0.4 mM lysine, seed extracts
  activity retained: about 50%
E. coli DHDPS; vs wheat germ DHDPS
  fold less sensitive to inhibition by lysine than a typical plant DHDPS: about 20 fold

Source: patent publication US7071383B2, “Chimeric genes and methods for increasing the lysine and threonine content of the seeds of plants” (E. I. du Pont de Nemours and Company, priority 1992, dated 2006)
